Consider six molecules from ChEMBL document CHEMBL3779836, “Inhibition of Histone Demethylases Offers a Novel and Promising Approach for the Treatment of Cancer and Other Diseases” (ACS Med Chem Lett, 2016).

Assay [1] concerns the target T1, Lysine-specific demethylase 4C (Homo sapiens, UniProt Q9H3R0).
T1 sequence (Q9H3R0 whole entry): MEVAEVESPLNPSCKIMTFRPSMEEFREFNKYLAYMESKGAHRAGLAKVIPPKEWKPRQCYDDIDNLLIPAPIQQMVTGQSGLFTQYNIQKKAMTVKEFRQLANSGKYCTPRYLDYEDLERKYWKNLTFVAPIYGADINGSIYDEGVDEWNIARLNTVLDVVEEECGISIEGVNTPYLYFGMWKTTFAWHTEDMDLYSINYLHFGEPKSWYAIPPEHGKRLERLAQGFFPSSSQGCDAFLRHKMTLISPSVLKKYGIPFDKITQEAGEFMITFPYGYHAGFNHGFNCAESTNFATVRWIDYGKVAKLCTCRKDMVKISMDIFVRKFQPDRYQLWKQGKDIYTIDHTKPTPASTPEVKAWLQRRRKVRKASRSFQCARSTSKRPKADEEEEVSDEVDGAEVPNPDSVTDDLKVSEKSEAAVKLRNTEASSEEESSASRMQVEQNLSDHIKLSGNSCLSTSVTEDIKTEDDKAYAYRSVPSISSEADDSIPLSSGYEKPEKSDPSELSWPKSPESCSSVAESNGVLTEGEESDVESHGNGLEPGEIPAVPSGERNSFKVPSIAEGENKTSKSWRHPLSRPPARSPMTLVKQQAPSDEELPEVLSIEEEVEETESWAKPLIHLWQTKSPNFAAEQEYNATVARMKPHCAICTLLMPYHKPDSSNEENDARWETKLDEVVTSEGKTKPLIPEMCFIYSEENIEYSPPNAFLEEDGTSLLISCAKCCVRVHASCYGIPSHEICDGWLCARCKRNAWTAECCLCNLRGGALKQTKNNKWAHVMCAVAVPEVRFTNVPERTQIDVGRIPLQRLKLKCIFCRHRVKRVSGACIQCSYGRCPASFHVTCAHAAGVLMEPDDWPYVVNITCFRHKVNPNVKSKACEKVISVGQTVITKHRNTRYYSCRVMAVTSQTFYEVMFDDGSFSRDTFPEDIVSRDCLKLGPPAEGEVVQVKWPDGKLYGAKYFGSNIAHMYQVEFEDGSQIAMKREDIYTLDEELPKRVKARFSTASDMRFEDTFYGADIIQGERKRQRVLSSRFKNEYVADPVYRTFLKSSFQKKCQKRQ
The experiment in a line: Inhibition of human KDM4C preincubated for 10 mins followed by substrate addition by AlphaLISA assay. For orientation: Alpha assays give light when donor and acceptor beads are brought close together.

Assay [2] addresses T2, Lysine-specific demethylase 2B (Homo sapiens, UniProt Q8NHM5).
T2 sequence (Q8NHM5 whole entry): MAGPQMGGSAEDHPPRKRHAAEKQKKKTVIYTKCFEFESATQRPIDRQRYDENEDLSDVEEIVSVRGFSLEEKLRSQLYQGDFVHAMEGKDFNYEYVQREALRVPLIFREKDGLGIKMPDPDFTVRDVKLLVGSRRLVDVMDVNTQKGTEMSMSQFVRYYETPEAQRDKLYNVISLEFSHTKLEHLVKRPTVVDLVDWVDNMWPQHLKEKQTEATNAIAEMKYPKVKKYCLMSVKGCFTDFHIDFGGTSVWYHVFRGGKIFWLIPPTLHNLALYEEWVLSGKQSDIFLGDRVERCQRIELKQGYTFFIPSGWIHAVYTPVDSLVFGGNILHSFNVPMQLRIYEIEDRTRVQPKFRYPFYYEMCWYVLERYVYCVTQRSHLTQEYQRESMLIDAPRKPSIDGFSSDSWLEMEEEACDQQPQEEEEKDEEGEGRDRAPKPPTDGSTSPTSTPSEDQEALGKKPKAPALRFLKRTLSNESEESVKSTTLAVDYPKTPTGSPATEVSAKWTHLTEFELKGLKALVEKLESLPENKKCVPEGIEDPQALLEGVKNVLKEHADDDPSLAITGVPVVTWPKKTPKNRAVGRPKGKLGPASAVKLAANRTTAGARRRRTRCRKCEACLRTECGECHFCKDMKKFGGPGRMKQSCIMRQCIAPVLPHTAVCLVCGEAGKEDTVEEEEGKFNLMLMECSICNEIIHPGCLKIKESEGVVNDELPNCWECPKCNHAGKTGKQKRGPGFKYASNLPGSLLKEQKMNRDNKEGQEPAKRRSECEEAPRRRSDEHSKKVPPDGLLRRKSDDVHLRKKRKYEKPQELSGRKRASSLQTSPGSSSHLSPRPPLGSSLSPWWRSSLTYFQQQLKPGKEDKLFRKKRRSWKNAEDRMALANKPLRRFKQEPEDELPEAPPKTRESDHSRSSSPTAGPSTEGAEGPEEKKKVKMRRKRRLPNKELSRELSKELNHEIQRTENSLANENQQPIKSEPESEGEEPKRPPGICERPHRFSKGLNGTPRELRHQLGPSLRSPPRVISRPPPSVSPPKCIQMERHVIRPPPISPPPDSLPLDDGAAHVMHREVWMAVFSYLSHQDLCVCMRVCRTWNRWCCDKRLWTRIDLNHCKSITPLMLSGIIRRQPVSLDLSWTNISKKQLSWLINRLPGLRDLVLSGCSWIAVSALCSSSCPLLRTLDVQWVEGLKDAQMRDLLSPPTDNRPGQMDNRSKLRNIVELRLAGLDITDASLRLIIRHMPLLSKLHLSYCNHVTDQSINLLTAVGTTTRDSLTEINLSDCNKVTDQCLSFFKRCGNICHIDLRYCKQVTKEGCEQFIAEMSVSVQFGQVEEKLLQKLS
The experiment in a line: Inhibition of human KDM2B preincubated for 10 mins followed by substrate addition by AlphaLISA assay.

Assay [3] has as its target Histone lysine demethylase PHF8 (Homo sapiens, UniProt Q9UPP1). The experiment in a line: Inhibition of human PHF8 preincubated for 10 mins followed by substrate addition by AlphaLISA assay.
For assay [4], the target named is Lysine-specific demethylase 6A (Homo sapiens, UniProt O15550). Briefly: Inhibition of human KDM6A preincubated for 10 mins followed by substrate addition by AlphaLISA assay.
Sequence of Lysine-specific demethylase 6A (O15550 whole entry): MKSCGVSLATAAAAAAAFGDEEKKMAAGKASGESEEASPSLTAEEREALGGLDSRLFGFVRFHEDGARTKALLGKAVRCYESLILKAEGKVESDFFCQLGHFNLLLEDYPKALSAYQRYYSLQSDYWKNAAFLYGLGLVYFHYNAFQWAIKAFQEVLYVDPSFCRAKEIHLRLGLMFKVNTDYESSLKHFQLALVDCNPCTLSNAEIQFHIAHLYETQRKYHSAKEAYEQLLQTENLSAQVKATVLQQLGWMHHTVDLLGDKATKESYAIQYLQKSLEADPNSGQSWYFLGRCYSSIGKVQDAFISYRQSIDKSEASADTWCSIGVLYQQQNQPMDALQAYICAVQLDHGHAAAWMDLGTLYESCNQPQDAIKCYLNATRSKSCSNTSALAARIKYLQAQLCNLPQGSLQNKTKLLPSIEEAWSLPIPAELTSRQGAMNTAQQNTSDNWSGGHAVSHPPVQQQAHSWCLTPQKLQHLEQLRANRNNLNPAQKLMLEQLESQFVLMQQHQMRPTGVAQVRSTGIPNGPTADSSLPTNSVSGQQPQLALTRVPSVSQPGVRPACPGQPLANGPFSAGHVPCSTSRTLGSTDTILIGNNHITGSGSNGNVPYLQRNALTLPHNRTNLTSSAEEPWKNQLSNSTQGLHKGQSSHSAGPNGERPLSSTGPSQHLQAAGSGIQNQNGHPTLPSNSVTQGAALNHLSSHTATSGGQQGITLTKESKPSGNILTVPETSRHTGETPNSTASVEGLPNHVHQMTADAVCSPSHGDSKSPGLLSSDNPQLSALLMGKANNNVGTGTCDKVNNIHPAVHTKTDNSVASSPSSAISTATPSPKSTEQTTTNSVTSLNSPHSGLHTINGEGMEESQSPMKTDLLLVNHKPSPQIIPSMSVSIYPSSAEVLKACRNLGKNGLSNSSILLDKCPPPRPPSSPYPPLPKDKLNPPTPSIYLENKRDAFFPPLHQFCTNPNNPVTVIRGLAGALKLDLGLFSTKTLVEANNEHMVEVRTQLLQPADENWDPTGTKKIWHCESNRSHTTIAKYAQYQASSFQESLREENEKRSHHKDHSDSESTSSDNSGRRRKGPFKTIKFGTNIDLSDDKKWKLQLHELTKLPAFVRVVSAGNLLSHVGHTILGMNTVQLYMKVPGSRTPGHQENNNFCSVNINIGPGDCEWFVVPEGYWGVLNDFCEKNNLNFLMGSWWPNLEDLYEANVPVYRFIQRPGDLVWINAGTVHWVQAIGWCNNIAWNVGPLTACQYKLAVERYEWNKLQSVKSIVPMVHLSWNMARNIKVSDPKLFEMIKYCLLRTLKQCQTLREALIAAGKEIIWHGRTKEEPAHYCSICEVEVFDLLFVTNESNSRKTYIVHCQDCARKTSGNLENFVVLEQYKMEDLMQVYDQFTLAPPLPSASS
In assay [5] the target is Lysine-specific demethylase 5B (Homo sapiens, UniProt Q9UGL1). The experiment in a line: Inhibition of human KDM5B preincubated for 10 mins followed by substrate addition by AlphaLISA assay.
Sequence of Lysine-specific demethylase 5B (Q9UGL1 whole entry): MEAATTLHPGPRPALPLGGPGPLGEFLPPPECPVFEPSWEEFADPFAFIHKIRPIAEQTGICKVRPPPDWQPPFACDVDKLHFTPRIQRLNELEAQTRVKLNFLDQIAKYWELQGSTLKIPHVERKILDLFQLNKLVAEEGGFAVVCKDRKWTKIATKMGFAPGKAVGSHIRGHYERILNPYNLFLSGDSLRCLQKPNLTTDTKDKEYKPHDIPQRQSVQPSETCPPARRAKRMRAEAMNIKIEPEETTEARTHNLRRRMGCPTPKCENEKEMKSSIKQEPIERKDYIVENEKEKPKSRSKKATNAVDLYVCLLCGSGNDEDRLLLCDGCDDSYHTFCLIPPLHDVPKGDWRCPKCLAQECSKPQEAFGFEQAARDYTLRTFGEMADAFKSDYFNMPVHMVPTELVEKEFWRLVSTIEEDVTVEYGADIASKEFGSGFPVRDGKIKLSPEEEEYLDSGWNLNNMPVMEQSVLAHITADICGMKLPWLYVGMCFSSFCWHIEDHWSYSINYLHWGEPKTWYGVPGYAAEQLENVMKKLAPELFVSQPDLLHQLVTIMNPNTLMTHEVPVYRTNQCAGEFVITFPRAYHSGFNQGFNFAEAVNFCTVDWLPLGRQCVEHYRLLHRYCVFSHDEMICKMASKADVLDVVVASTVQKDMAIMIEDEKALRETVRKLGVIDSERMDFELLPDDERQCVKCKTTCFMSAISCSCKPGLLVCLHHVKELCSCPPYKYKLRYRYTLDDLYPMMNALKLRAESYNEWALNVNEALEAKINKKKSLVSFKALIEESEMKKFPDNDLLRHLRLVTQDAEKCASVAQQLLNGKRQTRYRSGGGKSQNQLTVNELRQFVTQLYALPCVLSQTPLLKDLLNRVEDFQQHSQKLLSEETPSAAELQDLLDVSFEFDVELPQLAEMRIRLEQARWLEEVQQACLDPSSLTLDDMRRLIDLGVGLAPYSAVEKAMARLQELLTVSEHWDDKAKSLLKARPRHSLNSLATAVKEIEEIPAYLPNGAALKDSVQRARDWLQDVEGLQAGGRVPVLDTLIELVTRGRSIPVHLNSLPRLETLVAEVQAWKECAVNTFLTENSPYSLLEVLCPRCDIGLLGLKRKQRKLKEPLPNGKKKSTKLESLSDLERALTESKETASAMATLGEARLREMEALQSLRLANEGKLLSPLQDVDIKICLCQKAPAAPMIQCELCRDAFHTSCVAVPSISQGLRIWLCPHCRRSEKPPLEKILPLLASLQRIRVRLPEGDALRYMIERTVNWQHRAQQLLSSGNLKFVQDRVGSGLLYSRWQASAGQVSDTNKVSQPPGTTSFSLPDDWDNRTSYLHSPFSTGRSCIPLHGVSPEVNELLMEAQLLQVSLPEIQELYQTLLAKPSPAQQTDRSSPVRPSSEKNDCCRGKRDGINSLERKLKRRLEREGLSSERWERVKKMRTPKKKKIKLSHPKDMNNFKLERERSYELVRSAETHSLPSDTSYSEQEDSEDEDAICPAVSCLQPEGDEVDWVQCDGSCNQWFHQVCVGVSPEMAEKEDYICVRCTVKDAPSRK

Each structure is given as a SMILES string.

Sequence of Histone lysine demethylase PHF8 (Q9UPP1 whole entry): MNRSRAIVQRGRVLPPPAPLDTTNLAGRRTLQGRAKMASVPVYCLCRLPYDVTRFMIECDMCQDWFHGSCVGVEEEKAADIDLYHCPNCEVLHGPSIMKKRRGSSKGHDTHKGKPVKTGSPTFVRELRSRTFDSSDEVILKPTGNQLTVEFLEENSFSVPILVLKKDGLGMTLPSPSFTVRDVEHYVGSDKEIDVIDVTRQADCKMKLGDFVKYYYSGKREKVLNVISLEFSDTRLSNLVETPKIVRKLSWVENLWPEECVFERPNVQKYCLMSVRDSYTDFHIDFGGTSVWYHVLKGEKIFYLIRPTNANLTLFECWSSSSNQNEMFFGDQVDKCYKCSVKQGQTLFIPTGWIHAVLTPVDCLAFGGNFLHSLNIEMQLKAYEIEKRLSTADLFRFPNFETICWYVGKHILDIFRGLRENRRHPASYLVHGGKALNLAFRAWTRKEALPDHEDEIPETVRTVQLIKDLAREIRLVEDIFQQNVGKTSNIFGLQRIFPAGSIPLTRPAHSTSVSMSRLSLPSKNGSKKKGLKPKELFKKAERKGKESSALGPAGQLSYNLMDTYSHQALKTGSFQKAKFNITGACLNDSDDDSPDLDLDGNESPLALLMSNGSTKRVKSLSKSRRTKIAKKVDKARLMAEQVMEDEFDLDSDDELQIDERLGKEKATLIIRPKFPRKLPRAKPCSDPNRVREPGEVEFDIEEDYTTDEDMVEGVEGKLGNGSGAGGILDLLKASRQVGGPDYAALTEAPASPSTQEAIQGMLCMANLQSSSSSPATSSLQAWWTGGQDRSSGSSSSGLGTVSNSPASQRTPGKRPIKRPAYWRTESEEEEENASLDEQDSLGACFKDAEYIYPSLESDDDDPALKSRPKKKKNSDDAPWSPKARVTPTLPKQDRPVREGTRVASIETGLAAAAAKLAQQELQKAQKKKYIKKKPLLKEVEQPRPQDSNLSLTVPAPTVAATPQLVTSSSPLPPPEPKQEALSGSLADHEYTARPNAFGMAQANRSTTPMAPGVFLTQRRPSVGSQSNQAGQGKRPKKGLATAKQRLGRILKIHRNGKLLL

For orientation: IC50 means the concentration needed to halve the response being measured. Read a high IC50 as weaker potency. As for `Cc1cn2c(n1)CCN(Cc1cc(C(=O)O)ccn1)CC2`, the IC50 in assay [1] was less than 250 nM; in assay [2], more than 2500 nM; in assay [3], less than 250 nM; in assay [4] it was more than 2500 nM; in assay [5] it was less than 250 nM.

On to `C[C@H](c1ccccc1)N1CCC[C@H](CNCc2cc(C(=O)O)ccn2)C1=O`, for which the IC50 in assay [1] was less than 250 nM; in assay [2], less than 250 nM; in assay [3], less than 250 nM; in assay [4] it was more than 2500 nM; in assay [5], less than 250 nM.

For `C[C@H](c1ccccc1)N1CCC[C@@H](CNCc2cc(C(=O)O)ccn2)C1=O`, the IC50 is less than 250 nM in assay [1]; less than 250 nM in assay [2]; less than 250 nM in assay [3]; more than 2500 nM in assay [4]; less than 250 nM in assay [5].

`C[C@H](c1ccccc1)N1CC[C@@H](CNCc2cc(C(=O)O)ccn2)C1=O`: the IC50 in assay [1] is less than 250 nM; in assay [2], less than 250 nM; in assay [3] it was less than 250 nM; in assay [4], more than 2500 nM; in assay [5] it was less than 250 nM.

Take `COc1ccc([C@@H](C)N2CCC[C@@H](CNCc3cc(C(=O)O)ccn3)C2=O)cc1`: the half-inhibitory concentration (IC50) in assay [1] is less than 250 nM; in assay [2] it was less than 250 nM; in assay [3], less than 250 nM; in assay [4] it was more than 2500 nM; in assay [5], less than 250 nM.

Turning to `CCN1CCC(CNCc2cc(C(=O)O)ccn2)C1=O` (stereo not given), the IC50 is less than 250 nM in assay [1]; less than 250 nM in assay [2]; less than 250 nM in assay [3]; more than 2500 nM in assay [4]; less than 250 nM in assay [5].
